Consider nine molecules from patent US12637427B2, “ALDH-2 inhibitor compounds and methods of use” (Amygdala Neurosciences, Inc., priority 2022, dated 2026).

For series [1] the following is noted: O'Malley et al. 2021; cited from earlier work.
For another series, the target named is T1, MAO-B (Homo sapiens, UniProt P27338).
T1 sequence (P27338 1-520): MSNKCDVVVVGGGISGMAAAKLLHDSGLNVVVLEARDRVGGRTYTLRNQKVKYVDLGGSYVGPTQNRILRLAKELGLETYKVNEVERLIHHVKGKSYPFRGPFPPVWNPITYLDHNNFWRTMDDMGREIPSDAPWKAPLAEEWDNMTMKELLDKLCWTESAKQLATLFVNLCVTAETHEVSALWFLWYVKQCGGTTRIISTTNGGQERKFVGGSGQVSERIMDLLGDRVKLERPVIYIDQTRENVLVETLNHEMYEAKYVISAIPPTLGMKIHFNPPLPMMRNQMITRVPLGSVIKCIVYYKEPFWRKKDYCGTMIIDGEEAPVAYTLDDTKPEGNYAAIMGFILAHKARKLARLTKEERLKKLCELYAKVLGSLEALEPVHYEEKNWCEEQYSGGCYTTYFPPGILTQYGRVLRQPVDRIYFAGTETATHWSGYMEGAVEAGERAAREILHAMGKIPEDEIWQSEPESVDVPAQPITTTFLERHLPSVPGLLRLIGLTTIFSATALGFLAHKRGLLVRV
The series is described as follows: MAO-B inhibition assay. Type of series: biochemical. The settings on record: 20 min pre-incubation; 10 μM = highest concentration tested; read-out: Enzymatic Assays IC50 MAO-B. The procedure: (§1) D. MAO-A and MAO-B inhibition assays: MAO assays included luminogenic MAO substrate, reaction buffers, Luciferin Detection, and a reconstitution buffer with esterase. The MAO reaction mixture used in the assay included microsome contained MAO-A (2 μg) or MAO-B (10 μg), 160 μM substrate for MAO-A or 16 μM substrate for MAO-B, MAO-A buffer (100 mM Hepes buffer, pH 7.5, 5% glycerol) or MAO-B buffer (100 mM Hepes, pH 7.5, 5% glycerol, 10% dimethyl sulfoxide) in a final volume of 30 μL. After 20 minutes of pre-incubation of the MAO-A or MAO-B enzyme with the test ALDH-2 inhibitor compound, the reaction was initiated by adding enzyme substrate and the […] reaction was allowed to proceed for 60 minutes. Reconstituted Luciferin Detection Reagent (30 μL) was then added is added to simultaneously stop the MAO reaction and convert the methyl ester derivative to luciferin and produce light. The amount of light produced is directly proportional to the activity of MAO. The mixtures were further incubated for 20 minutes and activity of the enzyme was determined using Perkin-Elmer Envision Reader.

For a further series, the target named is T2, MAO-A (Homo sapiens, UniProt P21397).
T2 sequence (P21397 1-527): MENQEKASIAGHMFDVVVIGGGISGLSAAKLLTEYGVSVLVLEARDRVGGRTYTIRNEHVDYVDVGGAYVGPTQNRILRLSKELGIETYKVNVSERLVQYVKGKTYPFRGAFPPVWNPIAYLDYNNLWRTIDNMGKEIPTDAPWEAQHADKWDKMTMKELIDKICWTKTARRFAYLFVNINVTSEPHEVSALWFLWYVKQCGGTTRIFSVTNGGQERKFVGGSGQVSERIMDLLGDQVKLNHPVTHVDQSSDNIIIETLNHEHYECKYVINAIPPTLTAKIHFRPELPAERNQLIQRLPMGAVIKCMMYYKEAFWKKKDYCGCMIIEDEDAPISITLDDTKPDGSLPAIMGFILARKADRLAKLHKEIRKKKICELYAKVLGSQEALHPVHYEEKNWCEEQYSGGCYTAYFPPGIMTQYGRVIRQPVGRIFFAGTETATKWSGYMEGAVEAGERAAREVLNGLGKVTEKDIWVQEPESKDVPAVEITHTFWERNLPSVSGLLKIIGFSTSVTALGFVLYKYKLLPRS
Description: MAO-A inhibition assay. Format: biochemical. The note with it: 20 min pre-incubation; 10 μM = highest concentration tested; read-out: Enzymatic Assays IC50 MAO-A. The procedure: as §1

For the next series, the target named is T3, recombinant human ALDH-1 (Homo sapiens, UniProt P00352).
T3 sequence (P00352 1-501): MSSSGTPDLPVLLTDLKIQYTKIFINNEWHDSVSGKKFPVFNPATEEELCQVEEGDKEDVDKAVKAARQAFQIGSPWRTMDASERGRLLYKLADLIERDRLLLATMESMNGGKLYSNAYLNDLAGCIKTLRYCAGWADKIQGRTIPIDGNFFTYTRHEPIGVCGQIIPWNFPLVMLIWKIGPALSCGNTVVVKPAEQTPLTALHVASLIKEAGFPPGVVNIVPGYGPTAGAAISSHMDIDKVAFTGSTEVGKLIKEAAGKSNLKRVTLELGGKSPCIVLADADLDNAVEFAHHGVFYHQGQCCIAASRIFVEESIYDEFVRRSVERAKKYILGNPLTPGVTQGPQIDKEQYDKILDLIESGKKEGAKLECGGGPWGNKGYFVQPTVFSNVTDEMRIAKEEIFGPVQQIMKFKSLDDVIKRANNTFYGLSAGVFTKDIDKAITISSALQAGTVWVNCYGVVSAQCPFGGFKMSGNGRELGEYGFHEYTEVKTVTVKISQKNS
The series is described as follows: ALDH-1 inhibition assay. Type of series: biochemical. The settings on record: 60 min pre-incubation; 10 μM = highest concentration tested; read-out: Enzymatic Assays IC50 ALDH-1.

A further series addresses T4, recombinant human ALDH-2 (Homo sapiens, UniProt P05091).
T4 sequence (P05091 18-517): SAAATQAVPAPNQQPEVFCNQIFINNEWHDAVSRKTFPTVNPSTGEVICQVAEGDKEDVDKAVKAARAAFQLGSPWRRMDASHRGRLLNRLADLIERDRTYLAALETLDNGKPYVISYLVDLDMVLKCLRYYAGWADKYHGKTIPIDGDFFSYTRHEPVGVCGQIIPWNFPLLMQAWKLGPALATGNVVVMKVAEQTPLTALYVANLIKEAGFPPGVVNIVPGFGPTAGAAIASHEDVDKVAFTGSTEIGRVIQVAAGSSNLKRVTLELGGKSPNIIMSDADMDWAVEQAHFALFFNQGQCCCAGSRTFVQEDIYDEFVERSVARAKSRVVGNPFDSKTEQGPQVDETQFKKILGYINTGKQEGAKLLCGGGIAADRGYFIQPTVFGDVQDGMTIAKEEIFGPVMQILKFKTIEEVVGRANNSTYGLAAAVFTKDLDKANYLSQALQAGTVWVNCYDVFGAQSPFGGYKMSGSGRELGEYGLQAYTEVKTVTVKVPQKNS
The series is described as follows: ALDH-2 inhibition assay. The note with it: 60 min pre-incubation; 10 μM = highest concentration tested; read-out: Enzymatic Assays IC50 ALDH2. Type of series: biochemical.

Another series deals with HepaRG spheroids. Description: HepaRG 3D spheroid assay. Format: cell-based. The note with it: minimum effective concentration crossing vehicle control threshold of cell health marker; 100 μM = highest concentration tested. The source says: See e.g., Walker et al., “The evolution of strategies to minimise the risk of human drug-induced liver injury (DILI) in drug discovery and development,” (2020) Archives of Toxicology, Vol. 94: 2559-2585, which is hereby incorporated by reference herein in its entirety. […] In applying the HepaRG spheroid assay analysis to determining the hepatoxic liability of ALDH-2 inhibitor compounds, consideration is made of the binding to plasma protein and the limitations to CNS penetration due to the blood-brain barrier.
E. HepaRG® 3D spheroid assay: The HepaRG 3D spheroid assay is described in Walker et al., “The evolution of strategies to minimise the risk of human drug-induced liver injury (DILI) in drug discovery and development,” (2020) Archives of Toxicology, Vol. 94: 2559-2585. Briefly, HepaRG® cells were seeded into ultra-low adhesion 96-well black walled clear bottomed spheroid microplates. […] At the end of the incubation period, the spheroids were loaded with the relevant dye/antibody for each cell health marker (spheroid count, spheroid size, DNA structure, mitochondrial mass, mitochondrial membrane potential, oxidative stress, glutathione content, and cellular ATP). The plates were then scanned using an automated fluorescent cellular imager, ArrayScan® (Thermo Scientific Cellomics).

A further series deals with T5, recombinant human ALDH-3 (Homo sapiens, UniProt P30838).
T5 sequence (P30838 1-453): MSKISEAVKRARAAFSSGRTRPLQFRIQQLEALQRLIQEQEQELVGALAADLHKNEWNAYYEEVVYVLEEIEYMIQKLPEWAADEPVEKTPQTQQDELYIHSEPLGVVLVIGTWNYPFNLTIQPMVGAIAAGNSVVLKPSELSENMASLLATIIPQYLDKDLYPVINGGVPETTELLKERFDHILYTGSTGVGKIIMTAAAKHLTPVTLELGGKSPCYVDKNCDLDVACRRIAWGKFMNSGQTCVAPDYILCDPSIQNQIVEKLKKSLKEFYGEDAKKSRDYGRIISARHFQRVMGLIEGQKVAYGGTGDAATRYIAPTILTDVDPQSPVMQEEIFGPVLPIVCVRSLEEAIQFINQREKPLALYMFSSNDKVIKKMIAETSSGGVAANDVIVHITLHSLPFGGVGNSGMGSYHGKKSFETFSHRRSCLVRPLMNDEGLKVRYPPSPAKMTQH
Description: ALDH-3 inhibition assay. Type of series: biochemical. The settings on record: 60 min pre-incubation; 10 μM = highest concentration tested; read-out: Enzymatic Assays IC50 ALDH-3.

Description for recombinant human ALDH-1: B. ALDH-1 inhibition assay: The ALDH-1 reaction mixture used in the assay contained 100 μM formaldehyde, 2.5 mM NAD+, 20 mM NaCl, 10 mM MgCl2, 1 mM dithiothreitol (DTT; reducing agent), and 50 nM recombinant human ALDH-1 in 50 mM Hepes buffer, pH 7.5 in a final volume of 10 μL using 384-well Corning 3820 plates. After 60 min of pre-incubation of the test ALDH-2 inhibitor compound with ALDH-1, the reaction was started by adding NAD+ and formaldehyde and the assay reaction mixture was allowed to proceed for 60 minutes. Activity of the ALDH-1 enzyme was determined by monitoring NADH formation using Perkin-Elmer Envision Reader with excitation and emission wavelengths set at 340 and 460 nm, respectively.
Description for recombinant human ALDH-2: A. ALDH-2 inhibition assay: The ALDH-2 reaction mixture used in the assay contained 125 μM formaldehyde, 75 μM NAD+, 20 mM NaCl, 10 mM MgCl2, and 20 nM recombinant human ALDH-2 in 50 mM Hepes buffer, pH 7.5 in a final volume of 10 μL using 384-well Corning 3820 plates. After 60 min of pre-incubation of the test ALDH-2 inhibitor compound with ALDH-2, the reaction was started by adding NAD+ and formaldehyde and the assay reaction mixture was allowed to proceed for 60 minutes. Activity of the ALDH-2 enzyme was determined by monitoring NADH formation using Perkin-Elmer Envision Reader with excitation and emission wavelengths set at 340 and 460 nm, respectively.
Description for recombinant human ALDH-3: ALDH-3 inhibition assay: The ALDH-3 reaction mixture used in the assay contained 200 μM benzaldehyde, 2.5 mM NAD+, 20 mM NaCl, 10 mM MgCl2, and 10 nM recombinant human ALDH-3 in 50 mM Hepes buffer, pH 7.5 in a final volume of 10 μL using 384-well Corning 3820 plates. After 60 min of pre-incubation of the test ALDH-2 inhibitor compound with ALDH-3, the reaction was started by adding NAD+ and benzaldehyde and the assay reaction mixture was allowed to proceed for 60 minutes. Activity of the ALDH-3 enzyme was determined by monitoring NADH formation using Perkin-Elmer Envision Reader with excitation and emission wavelengths set at 340 and 460 nm, respectively.

Regarding `O=C(NCc1ccc(-c2cc[nH]c(=O)c2)cc1)c1c(Cl)cccc1Cl` [2,6-dichloro-N-[4-(2-oxo-1,2-dihydro-pyridin-4-yl)-benzyl]-benzamide], the hepatotoxicity in humans entry in series [1] is “high levels of hepatotoxicity”.

A word on the IC50: it is the concentration needed to halve the response being measured. Consider `Cc1nccc(Cl)c1C(=O)NCc1ccc(-c2[nH]c(=O)ccc2F)cc1` [(1h), 4-Chloro-N-(4-(3-fluoro-6-oxo-1,6-dihydropyridin-2-yl)benzyl)-2-methylnicotinamide], for which the IC50 at MAO-B was greater than 10 µM; at MAO-A, greater than 10 µM; at recombinant human ALDH-1 it was greater than 10 µM; on recombinant human ALDH-2, 0.1 µM. Moreover, the “HepaRG 3D Spheroid MEC” value in the series with HepaRG spheroids was found to be 53.9 µM.

Consider `O=C(NCc1ccc(-c2[nH]c(=O)ccc2F)nc1)c1c(Cl)cccc1Cl` [(1i), 2,6-dichloro-N-((3′-fluoro-6′-oxo-1′,6′-dihydro-[2,2′-bipyridin]-5-yl)methyl)benzamide], for which the IC50 on MAO-B is greater than 10 µM; on MAO-A it was greater than 10 µM; at recombinant human ALDH-1 it was greater than 10 µM; at recombinant human ALDH-2 it was 0.004 µM. Besides, in the series on HepaRG spheroids, the “HepaRG 3D Spheroid MEC” value was determined as 15.3 µM.

For the molecule `O=C(NCc1ccc(-c2cccc(=O)[nH]2)nc1)c1c(Cl)cccc1Cl` [(1j), 2,6-Dichloro-N-((6′-oxo-1′,6′-dihydro-[2,2′-bipyridin]-5-yl)methyl)benzamide], the IC50 is greater than 10 µM at MAO-B, greater than 10 µM at MAO-A, greater than 10 µM at recombinant human ALDH-1 and 0.007 µM on recombinant human ALDH-2. In addition, the “HepaRG 3D Spheroid MEC” value with HepaRG spheroids came to 5.06 µM.

Take `Cc1nccc(Cl)c1C(=O)NCc1ccc(-c2cccc(=O)[nH]2)nc1` [(1m), 4-Chloro-2-methyl-N-((6′-oxo-1′,6′-dihydro-[2,2′-bipyridin]-5-yl)methyl)nicotinamide]: the IC50 was greater than 10 µM at MAO-B; greater than 10 µM on MAO-A; greater than 10 µM at recombinant human ALDH-1; 0.98 µM on recombinant human ALDH-2; greater than 10 µM on recombinant human ALDH-3.

With `Cc1cccc(Cl)c1C(=O)NCc1cnc(-c2cccc(=O)[nH]2)nc1` [(1n), 2-Chloro-6-methyl-N-((2-(6-oxo-1,6-dihydropyridin-2-yl)pyrimidin-5-yl)methyl)benzamide], the concentration for half-maximal inhibition (IC50) is greater than 10 µM on MAO-B, greater than 10 µM at MAO-A, greater than 10 µM on recombinant human ALDH-1 and 0.031 µM on recombinant human ALDH-2. Besides, the “HepaRG 3D Spheroid MEC” value in the series on HepaRG spheroids was determined as 7.48 µM.

`O=C(NCc1ccc(-c2[nH]c(=O)ccc2F)cc1)c1c(Cl)cccc1Cl` [Compound (1d), 2,6-dichloro-N-(4-(3-fluoro-6-oxo-1,6-dihydropyridin-2-yl)benzyl)benzamide]: the IC50 on MAO-B was greater than 10 µM; on MAO-A it was greater than 10 µM; on recombinant human ALDH-1, greater than 10 µM; on recombinant human ALDH-2 it was 0.027 µM. Further, the “HepaRG 3D Spheroid MEC” value with HepaRG spheroids is “No Effect”.

Consider `Cc1cccc(Cl)c1C(=O)NCc1ccc(-c2[nH]c(=O)ccc2F)cc1` [Compound (1e), 2-Chloro-N-(4-(3-fluoro-6-oxo-1,6-dihydropyridin-2-yl)benzyl)-6-methylbenzamide], for which the IC50 at MAO-B was greater than 10 µM; at MAO-A, greater than 10 µM; at recombinant human ALDH-1, greater than 10 µM; on recombinant human ALDH-2, 0.009 µM. Also, in the series on HepaRG spheroids, the “HepaRG 3D Spheroid MEC” value was 50.4 µM.

Take `O=C(NCc1ccc(-c2[nH]c(=O)ccc2F)cc1)c1ccccc1Cl` [Compound (1f), 2-Chloro-N-(4-(3-fluoro-6-oxo-1,6-dihydropyridin-2-yl)benzyl)benzamide]: the IC50 on MAO-B is greater than 10 µM; on MAO-A, greater than 10 µM; on recombinant human ALDH-1 it was greater than 10 µM; on recombinant human ALDH-2, 0.329 µM; at recombinant human ALDH-3, greater than 10 µM.
